From the NIST ThermoML archive (doi:10.1021/je900414p)
± gives the expanded uncertainty stated by the source.

Test: xn = mol fraction of the nth substance listed
Settings: Liquid

CCOS(=O)(=O)[O-].CCn1cc[n+](C)c1 [1-ethyl-3-methylimidazolium ethyl sulfate] + CCO
mass density [kg/m3]
Settings	100 kPa	2500 kPa	5000 kPa	10000 kPa	15000 kPa	20000 kPa	25000 kPa	30000 kPa	35000 kPa
283.15 K, x1 = 0.05056	868.1 ± 0.64	870 ± 0.69	871.83 ± 0.74	875.33 ± 0.84	878.74 ± 0.93	882.02 ± 1	885.17 ± 1.1	888.22 ± 1.2	891.19 ± 1.3
283.15 K, x1 = 0.103	925.77 ± 0.56	927.45 ± 0.58	929.13 ± 0.6	932.41 ± 0.65	935.57 ± 0.68	938.63 ± 0.72	941.59 ± 0.76	944.47 ± 0.79	947.26 ± 0.81
283.15 K, x1 = 0.1247	946.96 ± 0.53	948.54 ± 0.54	950.16 ± 0.55	953.34 ± 0.58	956.4 ± 0.6	959.38 ± 0.62	962.25 ± 0.63	965.06 ± 0.64	967.8 ± 0.65
283.15 K, x1 = 0.2126	1015.49 ± 0.47	1016.98 ± 0.48	1018.48 ± 0.48	1021.37 ± 0.5	1024.17 ± 0.52	1026.89 ± 0.55	1029.52 ± 0.58	1032.11 ± 0.61	1034.62 ± 0.66
283.15 K, x1 = 0.2919	1063.41 ± 0.52	1064.67 ± 0.54	1066.03 ± 0.57	1068.69 ± 0.63	1071.27 ± 0.69	1073.82 ± 0.77	1076.29 ± 0.85	1078.72 ± 0.94	1081.08 ± 1.1
283.15 K, x1 = 0.3185	1076.89 ± 0.53	1078.19 ± 0.56	1079.51 ± 0.59	1082.11 ± 0.66	1084.66 ± 0.75	1087.15 ± 0.84	1089.57 ± 0.93	1091.95 ± 1.1	1094.27 ± 1.2
283.15 K, x1 = 0.4198	1120.15 ± 0.6	1121.36 ± 0.64	1122.61 ± 0.7	1125.05 ± 0.82	1127.44 ± 0.95	1129.77 ± 1.1	1132.05 ± 1.3	1134.29 ± 1.4	1136.48 ± 1.6
283.15 K, x1 = 0.4847	1142.52 ± 0.63	1143.68 ± 0.69	1144.88 ± 0.76	1147.23 ± 0.9	1149.51 ± 1.1	1151.78 ± 1.3	1153.99 ± 1.4	1156.16 ± 1.6	1158.29 ± 1.9
283.15 K, x1 = 0.5713	1167.9 ± 0.68	1169.02 ± 0.75	1170.16 ± 0.83	1172.41 ± 1	1174.61 ± 1.2	1176.78 ± 1.4	1178.91 ± 1.6	1181.01 ± 1.9	1183.08 ± 2.1
283.15 K, x1 = 0.6827	1194.68 ± 0.72	1195.76 ± 0.81	1196.85 ± 0.9	1199 ± 1.1	1201.12 ± 1.4	1203.21 ± 1.6	1205.24 ± 1.9	1207.27 ± 2.1	1209.25 ± 2.4
283.15 K, x1 = 0.7919	1216.13 ± 0.76	1217.15 ± 0.86	1218.19 ± 0.97	1220.26 ± 1.2	1222.32 ± 1.5	1224.34 ± 1.8	1226.31 ± 2	1228.28 ± 2.3	1230.19 ± 2.6
283.15 K, x1 = 0.9317	1237.97 ± 0.81	1238.92 ± 0.92	1239.94 ± 1.1	1241.93 ± 1.3	1243.92 ± 1.6	1245.88 ± 1.9	1247.81 ± 2.2	1249.69 ± 2.5	1251.56 ± 2.8
293.15 K, x1 = 0.05056	860.03 ± 0.66	861.91 ± 0.71	863.83 ± 0.76	867.52 ± 0.86	871.06 ± 0.97	874.47 ± 1.1	877.74 ± 1.2	880.91 ± 1.3	883.98 ± 1.4
293.15 K, x1 = 0.103	917.84 ± 0.57	919.6 ± 0.6	921.37 ± 0.62	924.78 ± 0.67	928.08 ± 0.72	931.25 ± 0.76	934.32 ± 0.8	937.28 ± 0.84	940.18 ± 0.87
293.15 K, x1 = 0.1247	939.1 ± 0.5	940.76 ± 0.55	942.46 ± 0.57	945.77 ± 0.6	948.96 ± 0.63	952.04 ± 0.65	955.03 ± 0.67	957.93 ± 0.69	960.74 ± 0.7
293.15 K, x1 = 0.2126	1007.62 ± 0.47	1009.27 ± 0.47	1010.81 ± 0.47	1013.8 ± 0.5	1016.71 ± 0.5	1019.53 ± 0.52	1022.26 ± 0.54	1024.93 ± 0.57	1027.53 ± 0.61
293.15 K, x1 = 0.2919	1055.3 ± 0.5	1056.61 ± 0.53	1058.04 ± 0.55	1060.8 ± 0.6	1063.5 ± 0.7	1066.12 ± 0.73	1068.67 ± 0.8	1071.18 ± 0.88	1073.62 ± 0.97
293.15 K, x1 = 0.3185	1069.32 ± 0.52	1070.62 ± 0.55	1071.98 ± 0.58	1074.68 ± 0.64	1077.32 ± 0.71	1079.89 ± 0.8	1082.37 ± 0.89	1084.82 ± 0.98	1087.22 ± 1.1
293.15 K, x1 = 0.4198	1112.7 ± 0.6	1113.96 ± 0.63	1115.24 ± 0.68	1117.75 ± 0.79	1120.22 ± 0.91	1122.63 ± 1.1	1124.97 ± 1.2	1127.27 ± 1.4	1129.54 ± 1.6
293.15 K, x1 = 0.4847	1135.13 ± 0.62	1136.31 ± 0.68	1137.55 ± 0.74	1139.97 ± 0.87	1142.34 ± 1	1144.68 ± 1.2	1146.94 ± 1.4	1149.19 ± 1.6	1151.37 ± 1.8
293.15 K, x1 = 0.5713	1160.59 ± 0.66	1161.75 ± 0.73	1162.92 ± 0.81	1165.25 ± 0.97	1167.52 ± 1.2	1169.75 ± 1.4	1171.93 ± 1.6	1174.07 ± 1.8	1176.19 ± 2
293.15 K, x1 = 0.6827	1187.41 ± 0.71	1188.51 ± 0.79	1189.64 ± 0.88	1191.86 ± 1.1	1194.04 ± 1.3	1196.18 ± 1.6	1198.27 ± 1.8	1200.33 ± 2.1	1202.37 ± 2.3
293.15 K, x1 = 0.7919	1208.95 ± 0.75	1210 ± 1	1211.08 ± 0.95	1213.21 ± 1.2	1215.31 ± 1.5	1217.38 ± 1.7	1219.4 ± 2	1221.4 ± 2.3	1223.38 ± 2.5
293.15 K, x1 = 0.9317	1230.93 ± 0.8	1231.9 ± 0.9	1232.97 ± 1	1235.05 ± 1.3	1237.08 ± 1.6	1239.09 ± 1.9	1241.05 ± 2.2	1242.97 ± 2.5	1244.9 ± 2.8
